Results as given in ChEMBL document CHEMBL5126650, “Novel IRAK Degraders for Treating Cancer” (ACS Med Chem Lett, 2022).

Target: Protein cereblon/Interleukin-1 receptor-associated kinase 4 (Homo sapiens, UniProt Q9NWZ3+Q96SW2)
Assay: Protac activity at E3 ubiquitin ligase/IRAK4 in human OCILY10 cells assessed as degradation of IRAK4 incubated for 4 hr by MSD assay
Assay type: cell-based

Protein cereblon/Interleukin-1 receptor-associated kinase 4, sequence (Q9NWZ3 whole entry): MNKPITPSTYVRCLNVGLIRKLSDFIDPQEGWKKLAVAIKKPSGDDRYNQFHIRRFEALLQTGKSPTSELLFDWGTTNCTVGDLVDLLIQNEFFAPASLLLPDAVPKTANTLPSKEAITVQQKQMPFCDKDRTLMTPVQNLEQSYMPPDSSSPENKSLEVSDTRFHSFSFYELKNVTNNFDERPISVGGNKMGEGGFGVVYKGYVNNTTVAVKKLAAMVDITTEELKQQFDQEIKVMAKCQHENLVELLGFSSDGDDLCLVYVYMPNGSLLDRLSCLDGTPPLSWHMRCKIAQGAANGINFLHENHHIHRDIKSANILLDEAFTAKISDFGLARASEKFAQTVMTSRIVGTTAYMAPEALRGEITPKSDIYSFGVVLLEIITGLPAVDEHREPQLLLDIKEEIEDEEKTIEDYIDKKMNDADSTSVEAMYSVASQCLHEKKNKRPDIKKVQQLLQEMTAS
Protein cereblon/Interleukin-1 receptor-associated kinase 4, sequence (Q96SW2 whole entry): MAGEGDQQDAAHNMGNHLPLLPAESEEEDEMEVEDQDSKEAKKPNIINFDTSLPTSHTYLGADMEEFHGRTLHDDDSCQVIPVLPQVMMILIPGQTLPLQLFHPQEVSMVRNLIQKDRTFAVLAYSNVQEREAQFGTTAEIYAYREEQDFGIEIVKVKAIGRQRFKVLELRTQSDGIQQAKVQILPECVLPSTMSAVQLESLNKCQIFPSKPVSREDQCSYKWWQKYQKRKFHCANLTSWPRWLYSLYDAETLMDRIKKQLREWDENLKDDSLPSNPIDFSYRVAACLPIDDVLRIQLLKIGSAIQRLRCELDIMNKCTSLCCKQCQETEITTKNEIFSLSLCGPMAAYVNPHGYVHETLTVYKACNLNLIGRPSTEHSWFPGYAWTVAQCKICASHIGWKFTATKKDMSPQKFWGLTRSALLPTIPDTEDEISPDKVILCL

| DC50 [nM] | Compound |
| --- | --- |
| < 10 | CN(C[C@H]1CC[C@H](n2cc3cc(NC(=O)c4cccc(C(F)(F)F)n4)ncc3n2)CC1)C1CCN(c2ccn3c(N4CCC(=O)NC4=O)cnc3c2)CC1 |
| < 10 | CN(C[C@H]1CC[C@H](n2cc3cc(NC(=O)c4cccc(C(F)(F)F)n4)ccc3n2)CC1)C1CCN(c2ccn3c(N4CCC(=O)NC4=O)cnc3c2)CC1 |
| < 10 | CN(C[C@H]1CC[C@H](n2cc3cc(NC(=O)c4cccc(C(F)(F)F)n4)c(C(C)(C)O)cc3n2)CC1)C1CCN(c2ccn3c(N4CCC(=O)NC4=O)cnc3c2)CC1 |

More lines, now with the values behind:

| Compound | DC50 [nM] |
| --- | --- |
| COc1cc2nn([C@H]3CC[C@H](CN(C)C4CCN(c5ccc6c(N7CCC(=O)NC7=O)cncc6c5)CC4)CC3)cc2cc1NC(=O)c1cccc(C(F)(F)F)n1 | < 10 |
| CN(C[C@H]1CC[C@H](n2cc3cc(NC(=O)c4cccc(C(F)(F)F)n4)c(C(C)(C)O)cc3n2)CC1)C1CCN(c2ccc3c(N4CCC(=O)NC4=O)cncc3c2)CC1 | < 10 |
| COc1cc2nc([C@H]3CC[C@H](CN4CCC(c5ccn6c(N7CCC(=O)NC7=O)cnc6c5)CC4)CC3)sc2cc1NC(=O)c1cccc(C(F)(F)F)n1 | < 10 |
